Assays:
TZM-bl cells = conditions: human, 3 days
Protocol: (§1) The anti-HIV-1 activity was assessed in a single-cycle assay by infecting TZM-bl indicator cells with the pseudovirus HIV-1 HXB2 according to established procedures (F. Curreli, Y. D. Kwon, D. S. Belov, R. R. Ramesh, A. V. Kurkin, A. Altieri, P. D. Kwong, A. K. Debnath, J Med Chem 2017, 60, 3124-3153; which is incorporated herein by reference for all that it teaches about the conduct and interpretation of the assay).
(§2) The cytotoxicity of the small polycyclic molecules in TZM-bl cells was determined by using the colorimetric method CellTiter 96® AQueous One Solution Cell Proliferation Assay (MTS) (Promega) following the manufacturer's instructions. Briefly, TZM-bl cells were platted in a 96-well tissue culture plate at 1×10^4/well and cultured at 37° C. Following overnight incubation, the cells were incubated with 100 μl of the compounds at graded concentrations and cultured for 3 days. The MTS reagent was added to the cells and incubated for 4 h at 37° C. The absorbance was recorded at 490 nm.

pseudovirus HIV-1 HXB2 = test: organism not typed; format: cell-based; conditions: anti-HIV-1 activity, single-cycle assay, TZM-bl cells, pseudovirus HIV-1 HXB2, read-out: IC50
in vitro = conditions: human
Protocol: as §1, §2

[1] = system: panel of HIV-1 Env Pseudoviruses (49 clones of clinical isolates, subtypes A, B, C, D, Arec); format: cell-based; conditions: 49 HIV-1 clones of clinical isolates
[2] = Human immunodeficiency virus 1, HXB2, TZM-bl

With `NCC(NC(=O)c1ccc(-c2ccc(C(F)(F)F)cn2)[nH]1)c1ncc(CO)s1` (stereo not shown) [Compound 6, N-(2-Amino-1-(5-(hydroxymethyl)thiazol-2-yl)ethyl)-5-(5-(trifluoromethyl)pyridin-2-yl)-1H-pyrrole-2-carboxamide] the CC50 (TZM-bl cells) was > 122 µM and the IC50 (pseudovirus HIV-1 HXB2) was 1.2 µM.
In the case of `CC(C)(N)C(NC(=O)c1ccc(-c2ccc(C(F)(F)F)cn2)[nH]1)c1ncc(CO)s1` (stereo not shown) [Compound 10, N-(2-Amino-1-(5-(hydroxymethyl)thiazol-2-yl)-2-methylpropyl)-5-(5-(trifluoromethyl)pyridin-2-yl)-1H-pyrrole-2-carboxamide], the CC50 (TZM-bl cells) is reported as 41 ± 2.5 µM and the IC50 (pseudovirus HIV-1 HXB2) is reported as 0.5 µM.
For `NCC(NC(=O)c1ccc(-c2ncc(Cl)cn2)[nH]1)c1nc(CO)cs1` (stereo not shown) [Compound 46, N-(2-Amino-1-(4-(hydroxymethyl)thiazol-2-yl)ethyl)-5-(5-chloropyrimidin-2-yl)-1H-pyrrole-2-carboxamide], the CC50 (TZM-bl cells) was > 66 µM and the IC50 (pseudovirus HIV-1 HXB2) was > 15.8 µM.
With `NCC(NC(=O)c1ccc(-c2ccc(C(F)(F)F)cn2)[nH]1)c1nccs1` (stereo not shown) [Compound 38, N-(2-Amino-1-(thiazol-2-yl)ethyl)-5-(5-(trifluoromethyl)pyridin-2-yl)-1H-pyrrole-2-carboxamide] the CC50 (TZM-bl cells) was 93.6 ± 1.5 µM and the IC50 (pseudovirus HIV-1 HXB2) was 1.2 ± 0.03 µM.
Molecule `Cc1cc(-c2ccc(C(F)(F)F)cn2)[nH]c1C(=O)NC(CN)c1csc(CO)n1` (stereo not shown) [Compound 64, N-(2-Amino-1-(2-(hydroxymethyl)thiazol-4-yl)ethyl)-3-methyl-5-(5-(trifluoromethyl)pyridin-2-yl)-1H-pyrrole-2-carboxamide] has a CC50 (TZM-bl cells) of 47.8 ± 5.9 µM and an IC50 (pseudovirus HIV-1 HXB2) of 1.3 ± 0.2 µM.
Molecule `NCC(NC(=O)c1ccc(-c2ccc(C(F)(F)F)cn2)[nH]1)c1csc(CO)n1` (stereo not shown) [Compound 66, N-(2-Amino-1-(2-(hydroxymethyl)thiazol-4-yl)ethyl)-5-(5-(trifluoromethyl)pyridin-2-yl)-1H-pyrrole-2-carboxamide] has a CC50 (TZM-bl cells) of 85.1 ± 2.5 µM and an IC50 (pseudovirus HIV-1 HXB2) of 1.7 ± 0.2 µM.
With `NCC(NC(=O)c1ccc(-c2ccc(Cl)cn2)[nH]1)c1cnc(CO)s1` (stereo not shown) [Compound 60, N-(2-Amino-1-(2-(hydroxymethyl)thiazol-5-yl)ethyl)-5-(5-chloropyridin-2-yl)-1H-pyrrole-2-carboxamide] the CC50 (TZM-bl cells) was > 106 µM and the IC50 (pseudovirus HIV-1 HXB2) was 3.6 ± 0.4 µM.
For `NCC(NC(=O)c1ccc(-c2ccc(Cl)cn2)[nH]1)c1ncc(CO)s1` (stereo not shown) [Compound 1, N-(2-Amino-1-(5-(hydroxymethyl)thiazol-2-yl)ethyl)-5-(5-chloropyridin-2-yl)-1H-pyrrole-2-carboxamide], the CC50 at 3 days (in vitro; CC50, cytotoxicity, TZM-bl cells, MTS, 3 days) was > 100 µM, the CC50 (TZM-bl cells) was 144 ± 7.5 µM and the IC50 (pseudovirus HIV-1 HXB2) was 0.85 ± 0.1 µM.
With `NCC(NC(=O)c1ccc(-c2ccc(C(F)(F)F)cn2)[nH]1)c1csc(C(=O)NCCO)n1` (stereo not shown) [Compound 70, 4-(2-Amino-1-(5-(5-(trifluoromethyl)pyridin-2-yl)-1H-pyrrole-2-carboxamido)ethyl)-N-(2-hydroxyethyl)thiazole-2-carboxamide] the CC50 (TZM-bl cells) was > 107 µM and the IC50 (pseudovirus HIV-1 HXB2) was > 21.3 µM.
With `NCC(NC(=O)c1ccc(-c2ccc(Cl)cn2)[nH]1)c1nc(CO)cs1` (stereo not shown) [Compound 16, N-(2-Amino-1-(4-(hydroxymethyl)thiazol-2-yl)ethyl)-5-(5-chloropyridin-2-yl)-1H-pyrrole-2-carboxamide] the CC50 (TZM-bl cells) was > 132 µM and the IC50 (pseudovirus HIV-1 HXB2) was 1.7 ± 0.3 µM.
For `CC(C)(N)C(NC(=O)c1ccc(-c2ccc(C(F)(F)F)cn2)[nH]1)c1ncc(CO)s1` (stereo not shown) [Compound 9, N-(2-Amino-1-(5-(hydroxymethyl)thiazol-2-yl)-2-methylpropyl)-5-(5-(trifluoromethyl)pyridin-2-yl)-1H-pyrrole-2-carboxamide], the CC50 at 3 days (in vitro; CC50) was < 50 µM and the CC50 (TZM-bl cells) was 74 ± 3.6 µM.
For `NCC(NC(=O)c1ccc(-c2ccc(C(F)(F)F)cn2)[nH]1)c1cnc(CO)s1` (stereo not shown) [Compound 58, N-(2-Amino-1-(2-(hydroxymethyl)thiazol-5-yl)ethyl)-5-(5-(trifluoromethyl)pyridin-2-yl)-1H-pyrrole-2-carboxamide], the CC50 (TZM-bl cells) was > 122 µM and the IC50 (pseudovirus HIV-1 HXB2) was 2.1 ± 0.2 µM.
In the case of `Cc1ccc(-c2ccc(C(=O)NC(CN)c3nc(CO)cs3)[nH]2)nc1` (stereo not shown) [Compound 20, N-(2-Amino-1-(4-(hydroxymethyl)thiazol-2-yl)ethyl)-5-(5-methylpyridin-2-yl)-1H-pyrrole-2-carboxamide], the CC50 (TZM-bl cells) is reported as > 140 µM, the IC50 (pseudovirus HIV-1 HXB2; [2]) is reported as > 10 µM and the IC50 (pseudovirus HIV-1 HXB2) is reported as > 11 µM.
In the case of `Cc1cc(-c2ccc(C(F)(F)F)cn2)[nH]c1C(=O)NC(CN)c1ncc(CO)s1` (stereo not shown) [Compound 8, N-(2-amino-1-(5-(hydroxymethyl)thiazol-2-yl)ethyl)-3-methyl-5-(5-(trifluoromethyl)pyridin-2-yl)-1H-pyrrole-2-carboxamide], the CC50 (TZM-bl cells) is reported as 109 ± 2 µM and the “anti-HIV-1 activity against panel of HIV-1 Env pseudotypes (in words)” value [1] is reported as “sub-micromolar”.
For `NCC(NC(=O)c1ccc(-c2ccc(C(F)(F)F)cn2)[nH]1)c1nc(C(O)CO)cs1` (stereo not shown) [Compound 30, N-(2-Amino-1-(4-(1,2-dihydroxyethyl)thiazol-2-yl)ethyl)-5-(5-(trifluoromethyl)pyridin-2-yl)-1H-pyrrole-2-carboxamide], the CC50 (TZM-bl cells) was > 113 µM and the IC50 (pseudovirus HIV-1 HXB2) was 3.8 ± 0.2 µM.
With `NCC(NC(=O)c1ccc(-c2ccc(C(F)(F)F)cn2)[nH]1)c1ncc(C(O)CO)s1` (stereo not shown) [Compound 14, N-(2-Amino-1-(5-(1,2-dihydroxyethyl)thiazol-2-yl)ethyl)-5-(5-(trifluoromethyl)pyridin-2-yl)-1H-pyrrole-2-carboxamide] the CC50 (TZM-bl cells) was > 113 µM and the IC50 (pseudovirus HIV-1 HXB2) was 5.9 ± 0.6 µM.
With `Cc1cc(-c2ccc(C(F)(F)F)cn2)[nH]c1C(=O)NC(CN)c1nc(CO)cs1` (stereo not shown) [Compound 33, N-(2-Amino-1-(4-(hydroxymethyl)thiazol-2-yl)ethyl)-3-methyl-5-(5-(trifluoromethyl)pyridin-2-yl)-1H-pyrrole-2-carboxamide] the CC50 at 3 days (in vitro; CC50) was 85 ± 3 µM and the “anti-HIV-1 activity against panel of HIV-1 Env pseudotypes (in words)” value [1] was “sub-micromolar”.
For `NCC(NC(=O)c1ccc(-c2ccc(C(F)(F)F)cn2)[nH]1)c1nc(CCCO)cs1` (stereo not shown) [Compound 27, N-(2-Amino-1-(4-(3-hydroxypropyl)thiazol-2-yl)ethyl)-5-(5-(trifluoromethyl)pyridin-2-yl)-1H-pyrrole-2-carboxamide], the CC50 at 3 days (in vitro; CC50) was > 100 µM, the CC50 (TZM-bl cells) was > 114 µM and the IC50 (pseudovirus HIV-1 HXB2) was 2.3 ± 0.3 µM.
In the case of `NCC(NC(=O)c1ccc(-c2ccc(C(F)(F)F)nn2)[nH]1)c1nc(CO)cs1` (stereo not shown) [Compound 44, N-(2-Amino-1-(4-(hydroxymethyl)thiazol-2-yl)ethyl)-5-(6-(trifluoromethyl)pyridazin-3-yl)-1H-pyrrole-2-carboxamide], the CC50 (TZM-bl cells) is reported as > 73 µM and the IC50 (pseudovirus HIV-1 HXB2) is reported as > 12 µM.
`NCC(NC(=O)c1ccc(-c2ccc(C(F)(F)F)cn2)[nH]1)c1nc(CCO)cs1` (stereo not shown) [Compound 26, N-(2-Amino-1-(4-(2-hydroxyethyl)thiazol-2-yl)ethyl)-5-(5-(trifluoromethyl)pyridin-2-yl)-1H-pyrrole-2-carboxamide] gave a CC50 (TZM-bl cells) of 91 ± 3.6 µM and an IC50 (pseudovirus HIV-1 HXB2) of 0.76 µM.
`Cc1cc(-c2ccc(C(F)(F)F)cn2)[nH]c1C(=O)NC(CN)c1cnc(CO)s1` (stereo not shown) [Compound 62, N-(2-Amino-1-(2-(hydroxymethyl)thiazol-5-yl)ethyl)-3-methyl-5-(5-(trifluoromethyl)pyridin-2-yl)-1H-pyrrole-2-carboxamide] gave a CC50 (TZM-bl cells) of 63.8 ± 2.1 µM and an IC50 (pseudovirus HIV-1 HXB2) of 1.9 ± 0.25 µM.
For `NCC(NC(=O)c1ccc(-c2ccc(Cl)cn2)[nH]1)c1csc(CO)n1` (stereo not shown) [Compound 68, N-(2-Amino-1-(2-(hydroxymethyl)thiazol-4-yl)ethyl)-5-(5-chloropyridin-2-yl)-1H-pyrrole-2-carboxamide], the CC50 (TZM-bl cells) was > 106 µM and the IC50 (pseudovirus HIV-1 HXB2; [2]) was 8.2 ± 2.1 µM.
With `NCC(NC(=O)c1ccc(-c2ccc(Cl)nc2)[nH]1)c1nc(CO)cs1` (stereo not shown) [Compound 40, N-(2-Amino-1-(4-(hydroxymethyl)thiazol-2-yl)ethyl)-5-(6-chloropyridin-3-yl)-1H-pyrrole-2-carboxamide] the CC50 (TZM-bl cells) was > 132 µM and the IC50 (pseudovirus HIV-1 HXB2) was > 11 µM.
For `NCC(NC(=O)c1ccc(-c2ccc(F)cn2)[nH]1)c1nc(CO)cs1` (stereo not shown) [Compound 18, N-(2-Amino-1-(4-(hydroxymethyl)thiazol-2-yl)ethyl)-5-(5-fluoropyridin-2-yl)-1H-pyrrole-2-carboxamide], the CC50 (TZM-bl cells) was > 138 µM and the IC50 (pseudovirus HIV-1 HXB2) was > 11 µM.
In the case of `NCC(NC(=O)c1ccc(-c2ccc(C(F)(F)F)nc2)[nH]1)c1nc(CO)cs1` (stereo not shown) [Compound 42, N-(2-Amino-1-(4-(hydroxymethyl)thiazol-2-yl)ethyl)-5-(6-(trifluoromethyl)pyridin-3-yl)-1H-pyrrole-2-carboxamide], the CC50 (TZM-bl cells) is reported as > 122 µM and the IC50 (pseudovirus HIV-1 HXB2) is reported as 11.9 ± 1.9 µM.
Work on `CC(C)(N)C(NC(=O)c1ccc(-c2ccc(C(F)(F)F)cn2)[nH]1)c1nc(CO)cs1` (stereo not shown) [Compound 24, N-(2-Amino-1-(4-(hydroxymethyl)thiazol-2-yl)-2-methylpropyl)-5-(5-(trifluoromethyl)pyridin-2-yl)-1H-pyrrole-2-carboxamide] yielded a CC50 (TZM-bl cells) of 59 ± 10 µM and an IC50 (pseudovirus HIV-1 HXB2) of 0.58 µM.
In the case of `NCC(NC(=O)c1ccc(-c2ccc(C(F)(F)F)cn2)[nH]1)c1nc(CCCO)cs1` (stereo not shown) [Compound 28, N-(2-Amino-1-(4-(3-hydroxypropyl)thiazol-2-yl)ethyl)-5-(5-(trifluoromethyl)pyridin-2-yl)-1H-pyrrole-2-carboxamide], the CC50 (TZM-bl cells) is reported as 81.2 ± 1.3 µM and the IC50 (pseudovirus HIV-1 HXB2) is reported as 0.89 ± 0.12 µM.
For `Cc1cc(-c2ccc(Cl)cn2)[nH]c1C(=O)NC(CN)c1ncc(CO)s1` (stereo not shown) [Compound 4, N-(2-Amino-1-(5-(hydroxymethyl)thiazol-2-yl)ethyl)-5-(5-chloropyridin-2-yl)-3-methyl-1H-pyrrole-2-carboxamide], the CC50 (TZM-bl cells) was 95 ± 3.6 µM and the IC50 (pseudovirus HIV-1 HXB2) was 2.4 ± 0.2 µM.
For `NCC(NC(=O)c1ccc(-c2ccc(C(F)(F)F)cn2)[nH]1)c1nc(CO)c(CO)s1` (stereo not shown) [Compound 36, N-(2-Amino-1-(4,5-bis(hydroxymethyl)thiazol-2-yl)ethyl)-5-(5-(trifluoromethyl)pyridin-2-yl)-1H-pyrrole-2-carboxamide], the CC50 (TZM-bl cells) was > 113 µM and the IC50 (pseudovirus HIV-1 HXB2) was 13 µM.
